Data as given in ChEMBL document CHEMBL1142370, “Synthesis and SAR of pyridazinone-substituted phenylalanine amide alpha4 integrin antagonists” (Bioorg Med Chem Lett, 2008).

How the values were obtained:
in vivo [1] = conditions: rat, po, 30 mg/kg
in vitro = conditions: human, Caco-2
in vivo [2] = conditions: rat, po, 30 mg/kg; remark: listed apart in the source

Row | Structure (SMILES) | Cmax (in vivo [1]) | Papp A→B (in vitro) | bioavailability (in vivo [2])
1 | COc1cnn(C)c(=O)c1-c1ccc(C[C@H](NC(=O)c2c(Cl)cccc2Cl)C(=O)O)cc1 | 0.1 µM | 0.13 ×10⁻⁶ cm/s | 
2 | COc1cnn(C)c(=O)c1-c1ccc(C[C@H](NC(=O)c2cc(F)ccc2Cl)C(=O)OCCO)cc1 | 19 µM |  | 5%
3 | COc1cnn(C)c(=O)c1-c1ccc(C[C@H](NC(=O)c2cc(F)ccc2Cl)C(=O)O)cc1 |  |  | 0%
